The assay has as its system 873145-292-R-J1-PDC complex spheroid viability. Description: Anticancer human tumor 873145-292-R-J1-PDC patient-derived renal clear cell carcinoma cell line growth inhibition [POLQ]. As to conditions: for viability, T/C: stronger effect = lower value. The procedure:
Multicellular complex tumor spheroid response to Polymerase (POL) inhibitors (novobiocin, ART-558, RP6685) in combination with a variety of drugs and investigational agents in selected tumor cell lines
The POL inhibitors (novobiocin, ART-558, and RP6685) were evaluated both individually and in combination with standard of care and investigational anticancer small molecules within a complex spheroid model of solid tumors. . Complex spheroids include a stromal component modeled by human endothelial cells (HUVEC) and fibroblasts modeled by human mesenchymal stem cells (MSCs). The concentration ranges selected for each drug and investigational agent were based upon clinically achievable concentrations if the clinical Cmax of the agent was known.
Compounds. The drugs and investigational agents: novobiocin (NSC847541), ART-558 (NSC835418), RP-6685 (NSC848927), peposertib (NSC802822), ceralasertib (NSC780249), elimusertib (NSC800525), camonsertib (NSC841442), AZD-1390 (NSC803789), olaparib (NSC753686), talazoparib (NSC767125), rucaparib (NSC756644), sotorasib (NSC818433), MRTX-1133 (NSC836407), SN-38 (NSC673596), topotecan (NSC609699), epotoside (NSC141540), doxorubicin (NSC123127), gemcitabine (NSC613327), 5-fluorouracil (NSC19893), paclitaxel (NSC125973), vemurafenib (NSC761431), MSA-2 (NSC828583), SN-011 (NSC837082), adavosertib (NSC754352), prexasertib (NSC758257), carboplatin (NSC241240) and oxaliplatin (NSC266046), were obtained from the National Cancer Institute (NCI) Developmental Therapeutics Program Chemical Repository (21). The FDA-approved anticancer drug set is available from the Developmental Therapeutics Program at https://dtp.cancer.gov/organization/dscb/obtaining/. […] The stock solutions were prepared in dimethyl sulfoxide (DMSO, Sigma-Aldrich, St. Louis, MO, cat. D2650), except for the platinum compounds which were prepared in saline (Quality Biological, Gaithersburg, MD, cat. 114-055-101), at 800-fold the tested concentration and stored at -70 degrees C prior to their use. All drugs and investigational agents were tested over a range starting from a high concentration at or near the clinical Cmax and decreasing in half-log increments. If the clinical Cmax for an agent had not been determined, the highest concentration tested was 10 microM, except for SN-38, which was tested at a high concentration of 1 microM.
Cell Culture. All cells were maintained in an incubator at 37 degrees C and 5% CO2 with 95% humidity. The PDC lines were cultured according to standard operating procedures established by the NCI PDMR (https://pdmr.cancer.gov). Table 3 of the manuscript, lists the cell lines along with the number of the three cell types plated to form the mct-spheroids and media for tumor cell growth. After thawing, all PDC lines, except 997537-175-T-J1-PDC and 415267-285-R-J2-PDC, were cultured in Matrigel-coated flasks prepared with a working solution of 1X Ham's F-12 nutrient mix, without supplementation (Thermo Fisher Scientific, cat. 11765054), 100 U/mL penicillin-streptomycin (Thermo Fisher Scientific, cat. 15140122), and 2.5% Matrigel (Corning Inc., Corning, NY, cat. 354248) for the first three passages. The two PDC lines 997537-175-T-J1-PDC and 415267-285-R-J2-PDC were cultured on uncoated flasks. The 857933-349-R-J2-PDC line was cultured in 6C/Colon 1B media containing advanced DMEM/F-12 (Thermo Fisher Scientific, cat. 12634028), 10 mM HEPES (Thermo Fisher Scientific, cat. 15630080), 1X GlutaMAX supplement (Thermo Fisher Scientific, cat. 35050061), 0.1 mg/mL primocin (InvivoGen, San Diego, CA, cat. ant-pm-2), 10% defined fetal bovine serum, heat inactivated (HyClone Laboratories Inc., Logan, UT, cat. SH30070.03HI), 50% L-WRN conditioned media (ATCC, cat. CRL-3276), 1.25 mM N-Acetyl-L-cysteine (Sigma-Aldrich, cat. A9165), 10 mM nicotinamide (Sigma-Aldrich, cat. N0636), 1X B-27 supplement (Thermo Fisher Scientific, cat. 17504044), 1X N-2 supplement (Thermo Fisher Scientific, cat. […]

Several values for one entry are separate records, joined by “and”; a condition that tells them apart may be missing. Equal entries are not always repeated.

Results on eight compounds are retold here after PubChem BioAssay AID1963834 (Molecular Pharmacology Branch, DTP, NCI, 2024).
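Note: spheroids exposed to compounds for 7 days before viability readout.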
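Throughout, for viability, T/C: luminescence signal used as surrogate for viable cell content.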

What is called viability, T/C is the ratio of treated to control. A word on the IC50: it is the concentration that inhibits the measured activity by half. For `C#Cc1c(F)ccc2cc(O)cc(-c3ncc4c(N5CC6CCC(C5)N6)nc(OCC56CCCN5CC(F)C6)nc4c3F)c12` (stereo not given), the viability, T/C reads like this: (compound 0.0316 µM) 99.2% and 106% and 107%; (compound 0.1 µM) 104% and 107% and 91.8%; (compound 0.316 µM) 90.8% and 96.4% and 88.5%; (compound 1 µM) 89% and 91.7% and 89.9%; (compound 3.16 µM) 91.4% and 107% and 86%; (compound 10 µM) 85% and 95.8% and 82.9%. Also, the IC50 (curve of compound) was over 10 µM.

In the case of `CC1COCCN1c1cc(C2(O)CC3CCC(C2)O3)c2cnn(-c3ccn[nH]3)c2n1` (stereo not given), the viability, T/C reads like this: (compound 0.0316 µM) 86.7% and 86.2% and 97.9%; (compound 0.1 µM) 84.8% and 72% and 82.1%; (compound 0.316 µM) 56.8% and 49.1% and 60.9%; (compound 1 µM) 48.6% and 43% and 55.3%; (compound 3.16 µM) 40% and 39.9% and 48.1%; (compound 10 µM) 31.9% and 32.5% and 41%. In addition, the IC50 (curve of compound) is 0.741 µM and 0.385 µM and 1.81 µM.

In the case of `CCc1cc2c(N3CCc4c(cc(Cn5ccnc5)cc4-c4cn(C)nc4C(F)(F)F)C3=O)cc(C)nc2c(OC)n1`, the viability, T/C is 95.3% and 101% and 104% (compound 0.0316 µM); 96.6% and 94.7% and 102% (compound 0.1 µM); 88.5% and 93.9% and 90.2% (compound 0.316 µM); 94.2% and 85.1% and 80.9% (compound 1 µM); 85.1% and 79.1% and 86.5% (compound 3.16 µM); 80.2% and 85.1% and 81% (compound 10 µM). Besides, the 50% inhibitory concentration (IC50) (curve of compound) is over 10 µM.

`CCc1cc2c(N3CCc4c(cc(Cn5ccnc5)cc4-c4cn(C)nc4C(F)(F)F)C3=O)ccnc2c(OC)n1`: the viability, T/C reads like this: (compound 0.0316 µM) 107% and 99% and 101%; (compound 0.1 µM) 89.9% and 92.2% and 96.8%; (compound 0.316 µM) 89.1% and 97.3% and 84.2%; (compound 1 µM) 92.1% and 87.7% and 87.1%; (compound 3.16 µM) 86.4% and 98% and 86.1%; (compound 10 µM) 75.7% and 91.9% and 81.5%. Further, the IC50 (curve of compound) is over 10 µM.

As to `COc1cc2cc(C(=O)CCC(=O)O)sc2cc1OC`, the viability, T/C is 112% and 99.5% and 94.5% (compound 0.0316 µM); 107% and 103% and 89.5% (compound 0.1 µM); 96.3% and 97.8% and 104% (compound 0.316 µM); 101% and 96.7% and 102% (compound 1 µM); 98.9% and 105% (2×) (compound 3.16 µM); 99.8% and 101% and 109% (compound 10 µM). Further, the IC50 (curve of compound) was over 10 µM.

Turning to `Nc1ccc(C#CCN(C(=O)Cc2ncc(C(F)(F)F)cc2C(F)(F)F)c2ccc(F)cc2)nn1`, the viability, T/C (compound 0.1 µM) is 101% [middle of 13 runs]; the viability, T/C (compound 0.316 µM) is 101% [middle of 13 runs]; the viability, T/C (compound 1 µM) was 95.2% [middle of 13 runs]; the viability, T/C (compound 3.16 µM) is 103% [middle of 13 runs]; the viability, T/C (compound 10 µM) is 108% [middle of 13 runs]. In addition, the 50% inhibitory concentration (IC50) (compound alone, run of 01/19/2024) was over 10 µM.

As for `O=C(Nc1ccc(O)c(NS(=O)(=O)c2ccc(F)cc2)c1)c1ccc(-c2ccccc2)cc1`, the viability, T/C runs as follows: (compound 0.0316 µM) 115% and 109% and 103%; (compound 0.1 µM) 97.8% and 105% and 91.7%; (compound 0.316 µM) 113% and 107% and 99.3%; (compound 1 µM) 105% and 99.7% and 101%; (compound 3.16 µM) 105% (2×) and 108%; (compound 10 µM) 104% and 99.2% and 98.4%. Further, the IC50 (curve of compound) is over 10 µM.

For `O=c1[nH]cc(F)c(=O)[nH]1` + COC1C(OC(N)=O)C(O)C(Oc2ccc3c(O)c(NC(=O)c4ccc(O)c(CC=C(C)C)c4)c(=O)oc3c2C)OC1(C)C, the 50% inhibitory concentration (IC50) (curve of first compound, second compound 0.0316 µM) is over 10 µM; the half-inhibitory concentration (IC50) (curve of first compound, second compound 0.1 µM) is over 10 µM; the IC50 (curve of first compound, second compound 0.316 µM) is over 10 µM; the IC50 (curve of first compound, second compound 1 µM) is over 10 µM; the IC50 (curve of first compound, second compound 3.16 µM) was over 10 µM; the IC50 (curve of first compound, second compound 10 µM) was over 10 µM. Further, the viability, T/C by setting is: (second compound 0.0316 µM, first compound 0.0316 µM) 100%; (second compound 0.0316 µM, first compound 0.1 µM) 92.8%; (second compound 0.0316 µM, first compound 0.316 µM) 90.8%; (second compound 0.0316 µM, first compound 1 µM) 110%; (second compound 0.0316 µM, first compound 3.16 µM) 87.9%; (second compound 0.0316 µM, first compound 10 µM) 96.8%. Further, the viability, T/C is 105% (second compound 0.1 µM, first compound 0.0316 µM); 103% (second compound 0.1 µM, first compound 0.1 µM); 85.2% (second compound 0.1 µM, first compound 0.316 µM); 95.4% (second compound 0.1 µM, first compound 1 µM); 89.2% (second compound 0.1 µM, first compound 3.16 µM); 89.1% (second compound 0.1 µM, first compound 10 µM). Besides, the viability, T/C was 101% (second compound 0.316 µM, first compound 0.0316 µM); 90% (second compound 0.316 µM, first compound 0.1 µM); 87.1% (second compound 0.316 µM, first compound 0.316 µM); 87.4% (second compound 0.316 µM, first compound 1 µM); 109% (second compound 0.316 µM, first compound 3.16 µM); 91.3% (second compound 0.316 µM, first compound 10 µM). For the same compound, the viability, T/C is 88.9% (second compound 1 µM, first compound 0.0316 µM); 89.8% (second compound 1 µM, first compound 0.1 µM); 86.2% (second compound 1 µM, first compound 0.316 µM); 87.7% (second compound 1 µM, first compound 1 µM); 100% (second compound 1 µM, first compound 3.16 µM); 88.5% (second compound 1 µM, first compound 10 µM). For the same compound, the viability, T/C was 95% (second compound 3.16 µM, first compound 0.0316 µM); 95.5% (second compound 3.16 µM, first compound 0.1 µM); 90.2% (second compound 3.16 µM, first compound 0.316 µM); 92.3% (second compound 3.16 µM, first compound 1 µM); 101% (second compound 3.16 µM, first compound 3.16 µM); 91.3% (second compound 3.16 µM, first compound 10 µM). Moreover, the viability, T/C was 91.3% (second compound 10 µM, first compound 0.0316 µM); 91.3% (second compound 10 µM, first compound 0.1 µM); 92.5% (second compound 10 µM, first compound 0.316 µM); 96.3% (second compound 10 µM, first compound 1 µM); 93.1% (second compound 10 µM, first compound 3.16 µM); 89.9% (second compound 10 µM, first compound 10 µM).
